Results reported in ChEMBL document CHEMBL4354803, “Synthesis and biological activity of structurally diverse phthalazine derivatives: A systematic review” (Bioorg Med Chem, 2019).
Blank lines part the entries; values can stand above or below the compound they belong to.

Legend:
[1] = Inhibition of human HeLa cell derived PARP preincubated for 10 mins followed by NAD and double stranded DNA-oligos addition and measured after 45 mins by scintillation counting; format: cell-based
HepG2 [2] = experiment: Cytotoxicity against human HepG2 cells incubated for 48 hrs by sulforhodamine B staining based ELISA; format: functional, cell-based; details: HepG2, 48 h
[3] = molecular target: T1, NAD-dependent protein deacetylase sirtuin-1 (Homo sapiens) (UniProt Q96EB6); experiment: Modulation of SIRT1 (unknown origin) expressed in Escherichia coli BL21(DE3) cells using Ac-EE-K(biotin)-GQSTSSHSK(Ac)NleSTEG-K(5TMR)-EE-NH2 as substrate after 25 mins by mass spectrometry
T1 sequence (whole entry): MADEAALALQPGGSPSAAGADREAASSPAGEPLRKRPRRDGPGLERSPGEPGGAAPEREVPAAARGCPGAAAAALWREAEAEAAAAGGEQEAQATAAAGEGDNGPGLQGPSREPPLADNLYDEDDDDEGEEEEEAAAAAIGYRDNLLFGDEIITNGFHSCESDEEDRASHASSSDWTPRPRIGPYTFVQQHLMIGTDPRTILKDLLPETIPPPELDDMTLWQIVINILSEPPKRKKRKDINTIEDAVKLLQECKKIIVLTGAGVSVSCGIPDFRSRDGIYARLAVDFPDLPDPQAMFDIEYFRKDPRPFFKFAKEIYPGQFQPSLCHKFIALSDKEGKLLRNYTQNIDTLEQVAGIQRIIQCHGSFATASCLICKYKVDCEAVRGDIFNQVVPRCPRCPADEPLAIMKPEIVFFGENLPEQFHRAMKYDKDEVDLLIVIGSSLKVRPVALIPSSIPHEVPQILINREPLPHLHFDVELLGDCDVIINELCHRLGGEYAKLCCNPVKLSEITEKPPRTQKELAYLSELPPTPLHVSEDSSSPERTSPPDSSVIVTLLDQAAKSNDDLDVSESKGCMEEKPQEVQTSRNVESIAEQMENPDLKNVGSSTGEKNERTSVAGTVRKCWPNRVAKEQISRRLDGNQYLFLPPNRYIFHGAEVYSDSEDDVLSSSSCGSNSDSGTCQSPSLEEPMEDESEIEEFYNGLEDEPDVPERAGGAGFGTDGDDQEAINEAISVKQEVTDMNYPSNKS

Mus musculus [4] = organism: Mus musculus; experiment: animal or person; details: ICR, ip
[5] = molecular target: Poly [ADP-ribose] polymerase 1 (Homo sapiens, UniProt P09874); experiment: Inhibition of human PARP1 expressed in Escherichia coli incubated for 15 to 40 mins by ELISA
Sequence of Poly [ADP-ribose] polymerase 1 (P09874 whole entry): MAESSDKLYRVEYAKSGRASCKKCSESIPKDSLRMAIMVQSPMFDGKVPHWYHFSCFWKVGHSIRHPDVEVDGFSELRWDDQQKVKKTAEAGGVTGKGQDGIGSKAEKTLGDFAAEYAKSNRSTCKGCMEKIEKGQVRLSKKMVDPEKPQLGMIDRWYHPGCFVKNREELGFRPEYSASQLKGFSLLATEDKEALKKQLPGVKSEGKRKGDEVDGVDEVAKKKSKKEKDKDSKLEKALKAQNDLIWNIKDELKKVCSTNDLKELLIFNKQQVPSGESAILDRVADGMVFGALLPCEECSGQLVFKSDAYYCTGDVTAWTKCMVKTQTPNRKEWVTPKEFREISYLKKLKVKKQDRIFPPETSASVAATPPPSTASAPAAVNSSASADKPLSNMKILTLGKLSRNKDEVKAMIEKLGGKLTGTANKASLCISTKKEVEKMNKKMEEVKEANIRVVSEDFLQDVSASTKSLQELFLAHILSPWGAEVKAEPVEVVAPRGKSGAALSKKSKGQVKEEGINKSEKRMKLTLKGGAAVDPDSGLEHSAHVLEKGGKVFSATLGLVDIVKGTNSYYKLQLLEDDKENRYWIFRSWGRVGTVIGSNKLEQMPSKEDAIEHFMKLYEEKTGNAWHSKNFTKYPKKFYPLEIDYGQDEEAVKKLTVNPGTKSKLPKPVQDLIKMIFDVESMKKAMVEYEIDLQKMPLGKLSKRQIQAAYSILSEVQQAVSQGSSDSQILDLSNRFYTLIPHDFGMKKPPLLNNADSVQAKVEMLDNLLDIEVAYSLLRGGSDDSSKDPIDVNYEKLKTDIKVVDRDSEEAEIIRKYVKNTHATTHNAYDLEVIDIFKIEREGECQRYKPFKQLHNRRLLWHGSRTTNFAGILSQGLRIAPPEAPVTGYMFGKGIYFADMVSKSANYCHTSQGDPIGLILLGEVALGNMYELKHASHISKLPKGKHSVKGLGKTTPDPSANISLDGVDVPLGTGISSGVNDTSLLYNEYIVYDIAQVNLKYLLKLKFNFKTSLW

[6] = molecular target: T2, Aldo-keto reductase family 1 member B1 (Homo sapiens, UniProt P15121); experiment: Inhibition of human Aldose reductase
Mus musculus [7] = experiment: Anticonvulsant activity in ip dosed mouse assessed as protection against PTZ-induced seizure; format: functional
Mus musculus [8] = experiment: Potency index, ratio of valproate ED50 to compound ED50 for Anticonvulsant activity in ip dosed ICR mouse assessed as protection against 50 mA current-induced seizure pretreated for 30 mins followed by seizure induction measured for 60 mins by maximal electroshock seizure test; format: functional
Prostaglandin E synthase = molecular target: T3, Prostaglandin E synthase (Homo sapiens, UniProt O14684); experiment: Inhibition of mPGES-1 in human A549 cells assessed as reduction in […] induced PGE2 release preincubated for 30 mins followed by […] addition and measured after 16 to 20 hrs by HTRF assay; format: cell-based
T3 sequence (O14684 whole entry): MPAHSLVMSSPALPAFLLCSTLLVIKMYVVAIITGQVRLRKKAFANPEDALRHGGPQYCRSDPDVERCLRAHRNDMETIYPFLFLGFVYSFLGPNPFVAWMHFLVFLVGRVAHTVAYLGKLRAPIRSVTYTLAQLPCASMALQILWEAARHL

Aurora kinase A = molecular target: T4, Aurora kinase A (Homo sapiens, UniProt O14965); experiment: Inhibition of C-terminal His4-tagged Aurora A (unknown origin) using PKB-GSK2 biotinylated peptide as substrate incubated for 90 mins by ELISA
T4 sequence (O14965 whole entry): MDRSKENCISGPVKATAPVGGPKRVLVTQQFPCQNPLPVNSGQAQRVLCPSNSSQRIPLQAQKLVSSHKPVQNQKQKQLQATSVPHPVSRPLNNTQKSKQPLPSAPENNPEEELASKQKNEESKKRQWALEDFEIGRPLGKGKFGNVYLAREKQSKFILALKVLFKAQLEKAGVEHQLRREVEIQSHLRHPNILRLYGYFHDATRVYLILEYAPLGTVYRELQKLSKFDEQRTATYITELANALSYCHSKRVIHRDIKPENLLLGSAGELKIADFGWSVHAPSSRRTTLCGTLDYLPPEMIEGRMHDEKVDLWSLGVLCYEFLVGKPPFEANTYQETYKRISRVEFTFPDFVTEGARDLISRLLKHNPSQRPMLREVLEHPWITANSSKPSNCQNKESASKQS

HCT-116 = experiment: Antiproliferative activity against human HCT116 cells after 5 days by CellTiter-Glo Luminescent Cell Viability Assay; format: functional, cell-based; details: HCT-116, 120 h
[9] = molecular target: T2, Aldo-keto reductase family 1 member B1
Description: Inhibition of human placenta Aldose reductase

Rattus norvegicus = experiment: In vivo inhibition of Aldose reductase in streptozotocin-induced po dosed rat model of diabetes assessed as reduction in sorbitol accumulation in sciatic nerve administered at 4,7,24 hrs and measured at 27 hrs; format: functional
Mus musculus [10] = experiment: Antinociceptive activity in Balb/c mouse at 20 mg/kg, ip after 120 mins by tail flick test relative to control; format: functional
[11] = molecular target: Cystic fibrosis transmembrane conductance regulator (Homo sapiens, UniProt P13569, F508DEL/H148Q/I152L); experiment: Inhibition of human CFTR F508 deletion mutant expressed in rat FRT cells coexpressing YFP-H148Q/I152L 25,22 incubated for 60 to 120 mins in presence of forskolin by fluorescent method; format: cell-based
Sequence of Cystic fibrosis transmembrane conductance regulator (P13569 whole entry, looked up, stated change not applied): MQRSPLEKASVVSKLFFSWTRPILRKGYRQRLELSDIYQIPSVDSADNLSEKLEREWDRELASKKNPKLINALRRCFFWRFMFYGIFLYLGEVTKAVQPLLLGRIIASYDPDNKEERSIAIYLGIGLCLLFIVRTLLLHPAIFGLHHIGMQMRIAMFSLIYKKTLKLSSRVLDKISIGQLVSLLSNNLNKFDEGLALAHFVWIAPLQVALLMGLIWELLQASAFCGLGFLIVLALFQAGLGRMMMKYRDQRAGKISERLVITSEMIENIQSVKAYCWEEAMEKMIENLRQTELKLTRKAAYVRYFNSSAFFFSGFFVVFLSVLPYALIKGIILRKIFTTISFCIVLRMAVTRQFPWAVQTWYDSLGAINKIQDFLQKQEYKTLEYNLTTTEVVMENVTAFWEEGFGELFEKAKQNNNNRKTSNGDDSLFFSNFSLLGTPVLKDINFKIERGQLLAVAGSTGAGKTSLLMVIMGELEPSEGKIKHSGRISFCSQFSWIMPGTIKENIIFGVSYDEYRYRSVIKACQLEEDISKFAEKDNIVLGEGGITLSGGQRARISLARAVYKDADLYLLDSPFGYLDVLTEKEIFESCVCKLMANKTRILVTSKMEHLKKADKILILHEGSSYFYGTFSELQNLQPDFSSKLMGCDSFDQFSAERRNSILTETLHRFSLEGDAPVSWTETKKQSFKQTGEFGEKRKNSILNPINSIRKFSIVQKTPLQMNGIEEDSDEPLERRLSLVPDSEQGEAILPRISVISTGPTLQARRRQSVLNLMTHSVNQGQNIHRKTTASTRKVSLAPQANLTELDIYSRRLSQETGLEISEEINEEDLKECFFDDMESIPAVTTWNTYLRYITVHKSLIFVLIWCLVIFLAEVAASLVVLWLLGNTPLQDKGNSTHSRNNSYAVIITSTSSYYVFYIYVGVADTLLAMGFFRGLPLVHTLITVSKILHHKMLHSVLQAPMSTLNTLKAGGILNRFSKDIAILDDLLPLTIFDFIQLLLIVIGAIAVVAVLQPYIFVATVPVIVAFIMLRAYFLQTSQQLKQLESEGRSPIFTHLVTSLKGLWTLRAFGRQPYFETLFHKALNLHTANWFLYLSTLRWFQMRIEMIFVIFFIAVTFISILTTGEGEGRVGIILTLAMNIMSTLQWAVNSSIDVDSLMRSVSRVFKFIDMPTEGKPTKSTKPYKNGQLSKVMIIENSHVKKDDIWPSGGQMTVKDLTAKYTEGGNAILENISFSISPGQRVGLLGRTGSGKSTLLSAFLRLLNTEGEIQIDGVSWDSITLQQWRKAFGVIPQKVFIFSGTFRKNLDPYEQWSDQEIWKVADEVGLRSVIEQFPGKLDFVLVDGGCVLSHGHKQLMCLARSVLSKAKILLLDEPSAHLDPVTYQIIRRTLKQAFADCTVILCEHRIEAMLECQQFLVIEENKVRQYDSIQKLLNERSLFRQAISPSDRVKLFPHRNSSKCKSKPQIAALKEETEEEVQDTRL

MCF7 = experiment: Cytotoxicity against human MCF7 cells; format: functional; details: read-out: LC50 (the source's name)
HepG2 [12] = experiment: Potency index, ratio of sorafenib IC50 to compound IC50 for cytotoxicity against human HepG2 cells by sulforhodamine B assay; format: functional
HepG2 [13] = experiment: Potency index, ratio of doxorubicin IC50 to compound IC50 for cytotoxicity against human HepG2 cells by sulforhodamine B assay; format: functional
Mus musculus [14] = experiment: Antidiabetic activity in C57BL/KsJ mouse assessed as maximum reduction in blood glucose level at 200 mg/kg, po administered for 9 days by spectrometric method relative to control; format: functional; design: scale not given: the % may be the effect or the level left

IC50 [1]: 0.005 µM
SMILES: COC1CCN(C(=O)c2cc(Cc3n[nH]c(=O)c4ccccc34)ccc2F)CC1 [AZD2461]

IC50 [1]: 0.003 µM
SMILES: CCOC1CCN(C(=O)c2cc(Cc3n[nH]c(=O)c4ccccc34)ccc2F)CC1

SMILES: CC(=O)CNC(=O)Cn1nc(Cc2ccccc2)c2ccccc2c1=O
IC50 (HepG2 [2]): 0.01 µM

EC1.5 [3]: < 5 µM
SMILES: O=C(Nc1cccc2cnn(-c3cccc(C(F)(F)F)c3)c(=O)c12)c1cnccn1

SMILES: CCOC(=O)CSc1nnc(Cn2[nH]c(=O)c3ccccc3c2=O)o1
ED50 (Mus musculus [4]): 193 µmol/kg

IC50 [5]: 0.0005 µM
SMILES: O=C(c1cc(Cc2n[nH]c(=O)c3ccccc23)ccc1F)N1CC2C(=O)N(Cc3ccccc3)C(=O)C2C1 (centres undefined)

IC50 [6]: 0.0032 to 0.005 µM
SMILES: Cc1c(CC(=O)O)nn(Cc2nc3cc(F)cc(F)c3s2)c(=O)c1C

IC50 [1]: < 0.01 µM
SMILES: CN1CC(=O)N(c2cccc(Cc3n[nH]c(=O)c4ccccc34)c2)C1=O
ED50 (Mus musculus [7]): 0.00166 µmol/kg

IC50 [1]: 0.0028 µM
SMILES: CC1C(=O)N(c2cccc(Cc3n[nH]c(=O)c4ccccc34)c2)C(=O)N1CCN1CCCCC1 (centres undefined)

EC1.5 [3]: < 5 µM
SMILES: O=C(Nc1cccc2cnn(-c3cccc(OC(F)(F)F)c3)c(=O)c12)c1cccc(CN2CCOCC2)n1

SMILES: COC(=O)CSc1nnc(Cn2[nH]c(=O)c3ccccc3c2=O)o1
Ratio ED50 (Mus musculus [8]): 10
ED50 (Mus musculus [4]): 172 µmol/kg

IC50 (Prostaglandin E synthase): < 0.05 µM
SMILES: O=C(Nc1ccc2cnn(-c3ccc(Br)cc3)c(=O)c2c1)c1c(F)cccc1Cl

IC50 (Aurora kinase A): 0.42 µM
IC50 (HCT-116): 0.007 µM
SMILES: Cc1cc(Nc2nn(C(C)C)c(=O)c3cc(OCCN4CCOCC4)ccc23)n[nH]1

IC50 [9]: 0.0032 to 0.052 µM
SMILES: O=C(O)Cc1nn(Cc2nc3cc(F)cc(F)c3o2)c(=O)c2ccccc12
ED50 (Rattus norvegicus): 5.6 mg/kg

SMILES: CN(C)CCn1nc(-c2ccccc2)c2ccccc2c1=O
MPE (Mus musculus [10]): 39.61%

IC50 [5]: 5 µM
SMILES: O=C(c1cc(Cc2n[nH]c(=O)c3ccccc23)ccc1F)N1CCn2cnnc2C1

EC50 [11]: < 10 µM
SMILES: Cc1nc2ccc(N(C)C(=O)Cn3nc(-c4cccc(Cl)c4)c4ccccc4c3=O)cc2o1

EC1.5 [3]: < 5 µM
SMILES: O=C(Nc1cccc2cnn(-c3cccc(C(F)(F)F)c3)c(=O)c12)c1cccc(CN2CCOCC2)n1

EC1.5 [3]: < 5 µM
SMILES: O=C(Nc1cccc2cnn(-c3cccc(OC(F)(F)F)c3)c(=O)c12)c1cccc(OCC(O)CO)n1 (centres undefined)

EC1.5 [3]: < 5 µM
SMILES: O=C(Nc1cccc2cnn(-c3cccc(C(F)(F)F)c3)c(=O)c12)c1cscn1

SMILES: CC(S)C[C@H](NC(=O)Cn1ncc2ccccc2c1=O)C(N)=O (some centres undefined)
CC50 (MCF7): 20.3 µM

SMILES: O=C(Cn1nc(Cc2ccccc2)c2ccccc2c1=O)Nc1ccccc1Cl
Ratio IC50 (HepG2 [12]): 2.9
Ratio IC50 (HepG2 [13]): 2.9

SMILES: Cc1nn(CCOc2ccc(CC3SC(=O)NC3=O)cc2)c(=O)c2ccccc12 (centres undefined)
Activity (Mus musculus [14]): <=61%

IC50 [6]: 0.01 to 0.016 µM
SMILES: Cc1c(CC(=O)O)nn(Cc2nc3cc(C(F)(F)F)ccc3s2)c(=O)c1C
